“Also recorded” adds a separate entry of the source.
Legend:
[1] = Variable temperature 1H NMR, tautomerism in DMF-d7; assay type: physicochemical; conditions: for tautomerism by Variable Temperature NMR: DMF-d7, 20 to −60° C.
Experimental: At 20° C., exchangeable protons on the base moiety are observed at 7.58 ppm and 4.14 ppm (FIG. 10). At −60° C., exchangeable protons on the base moiety are observed at 8.70 ppm, 8.08 ppm, and 4.68 ppm (FIG. 11). Protons with a chemical shift of 8.70, 8.08, and 7.58 ppm likely correspond to enolic, amido, or imino protons, while protons with a chemical shift of 4.68 and 4.14 ppm likely correspond to amino protons. The expected chemical shifts for enolic, amido, and imino protons are relatively close, and thus these species cannot be assigned at this stage. […] Only the existence of multiple tautomeric species would explain the presence of three exchangeable protons resonances. […] Based on their chemical structures, the keto-amino tautomer will pair with guanine and the keto-imino/enol-imino tautomers can pair with adenine.
All NMR experiments were performed on Varian 500 MHz NMR spectrometers. The deuterated solvent DMF-d7 was from Cambridge Isotope Laboratories, Andover, Mass., USA. 5-Aza-5,6-dihydro-2′-deoxycytidine (KP1212) nucleoside was from Berry & Associates Inc., Dexter, Mich., USA. The NMR sample was prepared by dissolving 10 mg of KP1212 nucleoside in 1.0 ml DMF-d7 (final concentration ˜44 mM). ^1H NMR spectra were reported in parts per million (ppm) and were referenced to the signals for DMF-d7 (8.03 ppm). ^13C NMR spectra were referenced to the signals for DMF-d7 (163.15 ppm).
FIG. 14A depicts the structures of all five possible tautomers (1 to 5) of KP1212, among which the three active protons on the nucleobase shift among the 02, N3, N4 and N5 positions. […] Before assigning the three active protons on the nucleobase moiety, all non-exchangeable protons in KP1212 and the two hydroxyl protons on the 3′ and 5′ positions were identified by carrying out 1D (^1H and ^13C) and 2D (COSY, HSQC, and HMBC) NMR experiments. The NMR signals of the three active protons in the base portion of KP1212 were studied at different temperatures. […] When the temperature was decreased to −50° C., the three broad peaks resolved into six distinct proton resonances (FIG. 14B, denoted as peaks i-vi), which could be assigned to imino (designated as e and n in FIGS. 14A to 14C), amido (designated as g and m), enolic (designated as c and d) or amino (designated as a, b, f, h, i, j, k, l, and o) protons.
At −50° C. six distinct proton resonances (FIG. 14B, i to vi) were observed, attributable to protons bound either to nitrogen or to oxygen atom (for only the base portion of the KP1212 molecule). Integration of the six broad peaks permitted estimation of the relative ratios of the five tautomeric species that exist in solution (FIG. 14A).
The NMR data also allowed the determination of the relative ratios of the tautomeric species present in the DMF solution at −50° C. (FIGS. 14B and 14C). Several peaks in the NMR spectrum partially overlapped (e.g., iv and v), so the raw data were reconstructed using a least squares fit algorithm (FIG. 16). The reconstructed peaks from the simulation were integrated, yielding an estimate of the relative amounts of each of the proton resonances in the spectrum. […] 2) Based on the peak assignments from part 1), a system of linear equations was set up using the relative amounts of tautomers as unknown variables (FIG. 14D). Each NMR peak provided a linear equation whereby the peak area should be equal to the sum of all tautomers (as relative amounts) containing protons that contribute to that peak. The solutions of these equations yielded the relative ratios of the tautomeric species present in DMF at −50° C. (FIG. 14D).

[2] = Mutagenesis model: base-pairing preference of tautomers combined with NMR tautomeric distribution; conditions: assuming imine geometric isomers present in equal proportions
Experimental: One of the fundamental assumptions in developing a mutagenesis model is that each KP1212 tautomer has a distinct base-pairing preference. To establish these preferences, in a relatively simple modeling exercise each tautomer was analyzed for its most probable base-pairing partner on the basis of hydrogen bonding. The primary criterion for correct base-pairing was formation of the maximum number of Watson-Crick type hydrogen bonds between the bases. Each type of hydrogen bond was considered to confer an equal stabilization energy. Configurations in which multiple base pairs had equal hydrogen bond numbers were considered equally probable. Since KP1212 is a cytosine (pyrimidine) analog, and the primary mutagenic events are A to G or G to A, our modeling exercise explored only purine-pyrimidine putative base pairs. Several KP1212 tautomers featured a canonical Watson-Crick face. Thus, tautomers enol-amino (1), enol-imino (2Z) and keto-amino (4) were predicted to pair with guanine, while keto-imino (5E) was predicted to pair with adenine (FIG. 19). The remaining tautomers could not adopt a canonical Watson-Crick face and therefore were hypothesized to pair in other geometries (i.e., wobble pairings, or syn-conformer pairings). […]

[3] = Phase I and II clinical trials; cited from earlier work
[4] = −50° C. in DMF, deconvoluted from NMR spectrum

Compound	tautomerism by Variable Temperature NMR [1]	relative proportion of enol tautomer 1 [1, 4] [%]	relative proportion of enol tautomer 2 [1, 4] [%]	relative proportion of keto tautomers 3 to 5 collectively [1, 4] [%]	model-predicted pairing with A [2]	model-predicted pairing with G [2]	safety in clinical trials [3]	tautomerism by Variable Temperature NMR ([1]; listed as deoxycytidine)
NC1=NC(=O)N([C@H]2C[C@H](O)[C@@H](CO)O2)CN1 [KP1212, 5-aza-5,6-dihydro-2′-deoxycytidine]	shows multiple tautomerism; also recorded: different tautomeric forms	51	38	11	~20 % of the time	~80 % of the time	safe	–
Nc1ccn([C@H]2C[C@H](O)[C@@H](CO)O2)c(=O)n1 [dC, deoxycytidine]	does not show multiple tautomerism; also recorded: single tautomerism	–	–	–	–	–	–	only one tautomeric form; also recorded: no imino or enol tautomer exists
